Source: patent US9809578B2, “Pyrazolyl urea, thiourea, guanidine and cyanoguanidine compounds as trkA kinase inhibitors” (Array BioPharma Inc., priority 2012, dated 2017)

Columns and labels:
Assay type in all cases: biochemical
Details in all cases: 10 μM, ATP near Km
ARK5 = biological target: T1, ARK5 (Homo sapiens, UniProt O60285); experiment: KinaseProfiler ARK5
T1 construct: purchased Millipore (KinaseProfiler service)
Source text: (§1) The compound was run in duplicate at a concentration of ATP near the Km for each individual kinase according to Millipore's specifications.

Axl = biological target: T2, Axl (Homo sapiens, UniProt P30530); experiment: KinaseProfiler Axl
T2 construct: purchased Millipore (KinaseProfiler service)
Source text: as §1

BrSK1 = biological target: T3, BrSK1 (Homo sapiens, UniProt Q8TDC3); experiment: KinaseProfiler BrSK1
T3 construct: purchased Millipore (KinaseProfiler service)
Source text: as §1

BTK = biological target: T4, BTK (Homo sapiens, UniProt Q06187); experiment: KinaseProfiler BTK
T4 construct: purchased Millipore (KinaseProfiler service)
Source text: as §1

CAMK1 = biological target: T5, CAMK1 (Homo sapiens, UniProt Q14012); experiment: KinaseProfiler CAMK1
T5 construct: purchased Millipore (KinaseProfiler service)
Source text: as §1

CAMK2g = biological target: T6, CAMK2g (Homo sapiens, UniProt Q13555); experiment: KinaseProfiler CAMK2g
T6 construct: purchased Millipore (KinaseProfiler service)
Source text: as §1

CAMK4 = biological target: T7, CAMK4 (Homo sapiens, UniProt Q16566); experiment: KinaseProfiler CAMK4
T7 construct: purchased Millipore (KinaseProfiler service)
Source text: as §1

CDK6/cyclinD3 = biological target: T8, CDK6/cyclinD3 (Homo sapiens, UniProt Q00534); experiment: KinaseProfiler CDK6/cyclinD3
T8 construct: purchased Millipore, Inc. (KinaseProfiler service)
Source text: as §1

CK1_y = experiment: KinaseProfiler CK1_y
CLK2 = biological target: T9, CLK2 (Homo sapiens, UniProt P49760); experiment: KinaseProfiler CLK2
T9 construct: purchased Millipore, Inc. (KinaseProfiler service)
Source text: as §1

CLK3 = biological target: T10, CLK3 (Homo sapiens, UniProt P49761); experiment: KinaseProfiler CLK3
T10 construct: purchased Millipore, Inc. (KinaseProfiler service)
T10 sequence (P49761 whole entry): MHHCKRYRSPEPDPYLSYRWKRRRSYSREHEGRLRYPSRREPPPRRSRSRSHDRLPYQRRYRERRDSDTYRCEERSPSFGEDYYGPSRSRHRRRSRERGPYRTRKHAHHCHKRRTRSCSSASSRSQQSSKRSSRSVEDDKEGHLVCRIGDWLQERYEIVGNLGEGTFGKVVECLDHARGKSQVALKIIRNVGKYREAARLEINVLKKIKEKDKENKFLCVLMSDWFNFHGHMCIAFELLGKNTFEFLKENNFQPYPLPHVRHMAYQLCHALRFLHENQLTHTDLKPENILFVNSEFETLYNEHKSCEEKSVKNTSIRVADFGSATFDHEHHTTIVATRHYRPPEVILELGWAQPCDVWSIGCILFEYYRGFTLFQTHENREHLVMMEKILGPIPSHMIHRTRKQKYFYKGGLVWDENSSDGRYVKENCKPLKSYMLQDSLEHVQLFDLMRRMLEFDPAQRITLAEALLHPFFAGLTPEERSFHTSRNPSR
Source text: as §1

CSK = biological target: T11, CSK (Homo sapiens, UniProt P41240); experiment: KinaseProfiler CSK
T11 construct: purchased Millipore, Inc. (KinaseProfiler service)
Source text: as §1

DRAK1 = biological target: T12, DRAK1 (Homo sapiens, UniProt Q9UEE5); experiment: KinaseProfiler DRAK1
T12 construct: purchased Millipore, Inc. (KinaseProfiler service)
Source text: as §1

EphA1 = biological target: T13, EphA1 (Homo sapiens, UniProt P21709); experiment: KinaseProfiler EphA1
T13 construct: purchased Millipore, Inc. (KinaseProfiler service)
Source text: as §1

EphB1 = biological target: T14, EphB1 (Homo sapiens, UniProt P54762); experiment: KinaseProfiler EphB1
T14 construct: purchased Millipore, Inc. (KinaseProfiler service)
Source text: as §1

ERK2 = biological target: T15, ERK2 (Homo sapiens, UniProt P28482); experiment: KinaseProfiler ERK2
T15 construct: purchased Millipore, Inc. (KinaseProfiler service)
Source text: as §1

FAK = biological target: T16, FAK (Homo sapiens, UniProt Q05397); experiment: KinaseProfiler FAK
T16 construct: purchased Millipore, Inc. (KinaseProfiler service)
Source text: as §1

Fes = biological target: T17, Fes (Homo sapiens, UniProt P07332); experiment: KinaseProfiler Fes
T17 construct: purchased Millipore, Inc. (KinaseProfiler service)
T17 sequence (P07332 whole entry): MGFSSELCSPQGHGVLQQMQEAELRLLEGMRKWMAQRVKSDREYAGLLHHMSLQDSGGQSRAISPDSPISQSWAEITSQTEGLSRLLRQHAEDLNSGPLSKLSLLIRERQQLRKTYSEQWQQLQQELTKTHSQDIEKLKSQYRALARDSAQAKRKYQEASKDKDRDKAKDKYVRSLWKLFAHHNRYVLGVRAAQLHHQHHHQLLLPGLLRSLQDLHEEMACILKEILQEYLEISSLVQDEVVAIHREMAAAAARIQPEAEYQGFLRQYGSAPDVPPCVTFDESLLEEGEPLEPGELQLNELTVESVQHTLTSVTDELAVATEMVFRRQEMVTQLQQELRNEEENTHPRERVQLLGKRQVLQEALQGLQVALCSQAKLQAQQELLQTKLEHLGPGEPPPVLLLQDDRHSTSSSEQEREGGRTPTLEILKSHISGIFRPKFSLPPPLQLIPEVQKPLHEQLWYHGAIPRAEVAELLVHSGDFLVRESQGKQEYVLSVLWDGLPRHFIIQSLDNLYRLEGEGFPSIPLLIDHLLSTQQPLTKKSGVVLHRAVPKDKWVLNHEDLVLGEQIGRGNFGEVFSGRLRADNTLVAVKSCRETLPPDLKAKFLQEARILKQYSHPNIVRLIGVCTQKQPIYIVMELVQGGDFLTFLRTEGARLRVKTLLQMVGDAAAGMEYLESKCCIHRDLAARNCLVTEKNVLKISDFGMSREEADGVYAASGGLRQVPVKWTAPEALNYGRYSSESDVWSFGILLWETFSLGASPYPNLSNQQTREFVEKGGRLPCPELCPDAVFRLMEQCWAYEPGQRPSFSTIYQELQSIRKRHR
Source text: as §1

IRAK1 = biological target: T18, IRAK1 (Homo sapiens, UniProt P51617); experiment: KinaseProfiler IRAK1
T18 construct: purchased Millipore, Inc. (KinaseProfiler service)
Source text: as §1

IRAK4 = biological target: T19, IRAK4 (Homo sapiens, UniProt Q9NWZ3); experiment: KinaseProfiler IRAK4
T19 construct: purchased Millipore, Inc. (KinaseProfiler service)
Source text: as §1

JAK2 = biological target: T20, JAK2 (Homo sapiens, UniProt O60674); experiment: KinaseProfiler JAK2
T20 construct: purchased Millipore, Inc. (KinaseProfiler service)
Source text: as §1

JNK2alpha2 = biological target: T21, JNK2alpha2 (Homo sapiens, UniProt P45984); experiment: KinaseProfiler JNK2alpha2
T21 construct: purchased Millipore, Inc. (KinaseProfiler service)
T21 sequence (P45984 whole entry): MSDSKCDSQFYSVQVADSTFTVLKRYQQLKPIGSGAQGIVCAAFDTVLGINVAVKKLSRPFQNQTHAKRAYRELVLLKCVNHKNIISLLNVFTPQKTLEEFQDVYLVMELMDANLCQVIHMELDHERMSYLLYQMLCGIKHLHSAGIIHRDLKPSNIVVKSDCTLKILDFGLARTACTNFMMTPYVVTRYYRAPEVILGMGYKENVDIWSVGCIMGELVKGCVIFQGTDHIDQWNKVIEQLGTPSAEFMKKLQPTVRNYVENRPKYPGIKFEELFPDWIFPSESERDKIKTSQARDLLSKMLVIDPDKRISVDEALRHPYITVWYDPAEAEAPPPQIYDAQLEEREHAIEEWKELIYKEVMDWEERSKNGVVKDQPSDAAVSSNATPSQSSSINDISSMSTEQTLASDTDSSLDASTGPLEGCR
Source text: as §1

KDR = biological target: T22, KDR (Homo sapiens, UniProt P35968); experiment: KinaseProfiler KDR
T22 construct: purchased Millipore, Inc. (KinaseProfiler service)
Source text: as §1

Lck = biological target: T23, Lck (Homo sapiens, UniProt P06239); experiment: KinaseProfiler Lck
T23 construct: purchased Millipore, Inc. (KinaseProfiler service)
T23 sequence (P06239 whole entry): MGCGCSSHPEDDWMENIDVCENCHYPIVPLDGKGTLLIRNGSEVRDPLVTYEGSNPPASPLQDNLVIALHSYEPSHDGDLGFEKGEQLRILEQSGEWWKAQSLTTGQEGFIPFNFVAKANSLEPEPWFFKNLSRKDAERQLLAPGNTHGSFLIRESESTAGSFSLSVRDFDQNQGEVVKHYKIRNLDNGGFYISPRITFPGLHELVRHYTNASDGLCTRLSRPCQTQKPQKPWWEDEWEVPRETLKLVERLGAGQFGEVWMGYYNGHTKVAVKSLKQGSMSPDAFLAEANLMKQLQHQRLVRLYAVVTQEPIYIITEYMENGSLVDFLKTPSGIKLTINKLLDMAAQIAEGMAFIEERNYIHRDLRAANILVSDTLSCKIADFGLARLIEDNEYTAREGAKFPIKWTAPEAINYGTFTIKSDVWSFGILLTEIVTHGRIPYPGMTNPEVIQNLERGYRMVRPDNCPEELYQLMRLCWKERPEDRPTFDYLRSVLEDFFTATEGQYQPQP
Source text: as §1

Lyn = biological target: T24, Lyn (Homo sapiens, UniProt P07948); experiment: KinaseProfiler Lyn
T24 construct: purchased Millipore, Inc. (KinaseProfiler service)
Source text: as §1

MAPKAP-K2 = biological target: T25, MAPKAP-K2 (Homo sapiens, UniProt P49137); experiment: KinaseProfiler MAPKAP-K2
T25 construct: purchased Millipore, Inc. (KinaseProfiler service)
Source text: as §1

MARK1 = biological target: T26, MARK1 (Homo sapiens, UniProt Q9P0L2); experiment: KinaseProfiler MARK1
T26 construct: purchased Millipore, Inc. (KinaseProfiler service)
Source text: as §1

Mer = biological target: T27, Mer (Homo sapiens, UniProt Q12866); experiment: KinaseProfiler Mer
T27 construct: purchased Millipore, Inc. (KinaseProfiler service)
Source text: as §1

MLK1 = biological target: T28, MLK1 (Homo sapiens, UniProt P80192); experiment: KinaseProfiler MLK1
T28 construct: purchased Millipore, Inc. (KinaseProfiler service)
Source text: as §1

mTOR = biological target: T29, mTOR (Homo sapiens, UniProt P42345); experiment: KinaseProfiler mTOR
T29 construct: purchased Millipore, Inc. (KinaseProfiler service)
Source text: as §1

PAK6 = biological target: T30, PAK6 (Homo sapiens, UniProt Q9NQU5); experiment: KinaseProfiler PAK6
T30 construct: purchased Millipore, Inc. (KinaseProfiler service)
T30 sequence (Q9NQU5 whole entry): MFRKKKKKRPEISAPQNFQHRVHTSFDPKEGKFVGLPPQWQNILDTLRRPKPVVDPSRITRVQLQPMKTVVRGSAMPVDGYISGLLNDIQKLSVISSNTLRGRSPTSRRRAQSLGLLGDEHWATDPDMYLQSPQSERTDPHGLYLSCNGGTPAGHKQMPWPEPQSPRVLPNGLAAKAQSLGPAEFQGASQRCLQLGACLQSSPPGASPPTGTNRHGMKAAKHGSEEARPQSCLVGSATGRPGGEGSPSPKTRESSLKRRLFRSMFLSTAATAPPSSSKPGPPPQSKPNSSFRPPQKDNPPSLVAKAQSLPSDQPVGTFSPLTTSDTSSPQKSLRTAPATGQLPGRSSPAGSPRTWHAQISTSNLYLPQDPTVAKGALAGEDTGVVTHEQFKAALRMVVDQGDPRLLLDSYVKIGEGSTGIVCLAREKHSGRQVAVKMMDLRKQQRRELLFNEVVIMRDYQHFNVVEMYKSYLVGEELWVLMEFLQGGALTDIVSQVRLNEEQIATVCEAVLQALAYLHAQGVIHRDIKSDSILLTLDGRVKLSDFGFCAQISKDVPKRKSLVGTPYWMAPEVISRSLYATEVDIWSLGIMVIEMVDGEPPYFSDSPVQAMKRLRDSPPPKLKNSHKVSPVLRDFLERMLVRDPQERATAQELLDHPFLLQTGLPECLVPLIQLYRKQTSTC
Source text: as §1

PKCbetaII = biological target: T31, PKCbetaII (Homo sapiens, UniProt P05771); experiment: KinaseProfiler PKCbetaII
T31 construct: purchased Millipore, Inc. (KinaseProfiler service)
T31 sequence (P05771 1-673 isoform P05771-2): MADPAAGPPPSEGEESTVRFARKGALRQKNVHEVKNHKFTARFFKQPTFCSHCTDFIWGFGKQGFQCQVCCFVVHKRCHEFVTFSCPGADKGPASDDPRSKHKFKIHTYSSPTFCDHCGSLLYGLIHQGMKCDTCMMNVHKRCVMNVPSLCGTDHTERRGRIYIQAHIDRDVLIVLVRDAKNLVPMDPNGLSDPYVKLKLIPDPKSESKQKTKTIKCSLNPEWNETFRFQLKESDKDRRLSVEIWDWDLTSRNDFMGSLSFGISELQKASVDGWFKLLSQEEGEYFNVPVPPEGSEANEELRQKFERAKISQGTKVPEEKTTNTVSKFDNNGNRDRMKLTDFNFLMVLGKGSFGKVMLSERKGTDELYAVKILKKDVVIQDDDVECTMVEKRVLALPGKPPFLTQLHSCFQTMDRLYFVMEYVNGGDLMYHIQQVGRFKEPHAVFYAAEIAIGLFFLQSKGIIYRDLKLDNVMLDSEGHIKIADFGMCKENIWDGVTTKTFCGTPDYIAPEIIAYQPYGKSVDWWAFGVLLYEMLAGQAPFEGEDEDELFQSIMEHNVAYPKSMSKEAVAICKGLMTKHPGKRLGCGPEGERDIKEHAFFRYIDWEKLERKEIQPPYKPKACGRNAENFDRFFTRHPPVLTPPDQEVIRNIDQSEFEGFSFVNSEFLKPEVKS
Source text: as §1

Plk1 = biological target: T32, Plk1 (Homo sapiens, UniProt P53350); experiment: KinaseProfiler Plk1
T32 construct: purchased Millipore, Inc. (KinaseProfiler service)
Source text: as §1

PRKG1beta = biological target: T33, PRKG1beta (Homo sapiens, UniProt Q13976); experiment: KinaseProfiler PRKG1beta
T33 construct: purchased Millipore, Inc. (KinaseProfiler service)
Source text: as §1

PrKX = biological target: T34, PrKX (Homo sapiens, UniProt P51817); experiment: KinaseProfiler PrKX
T34 construct: purchased Millipore, Inc. (KinaseProfiler service)
Source text: as §1

Ret = biological target: T35, Ret (Homo sapiens, UniProt P07949); experiment: KinaseProfiler Ret
T35 construct: purchased Millipore, Inc. (KinaseProfiler service)
Source text: as §1

Rse = biological target: T36, Rse (Homo sapiens, UniProt Q06418); experiment: KinaseProfiler Rse
T36 construct: purchased Millipore, Inc. (KinaseProfiler service)
Source text: as §1

STK33 = biological target: T37, STK33 (Homo sapiens, UniProt Q9BYT3); experiment: KinaseProfiler STK33
T37 construct: purchased Millipore, Inc. (KinaseProfiler service)
Source text: as §1

TEC Activated = biological target: T38, TEC Activated (Homo sapiens, UniProt P42680); experiment: KinaseProfiler TEC Activated
T38 construct: purchased Millipore, Inc. (KinaseProfiler service)
Source text: as §1

TSSK1 = biological target: T39, TSSK1 (Homo sapiens, UniProt Q9BXA7); experiment: KinaseProfiler TSSK1
T39 construct: purchased Millipore, Inc. (KinaseProfiler service)
T39 sequence (Q9BXA7 whole entry): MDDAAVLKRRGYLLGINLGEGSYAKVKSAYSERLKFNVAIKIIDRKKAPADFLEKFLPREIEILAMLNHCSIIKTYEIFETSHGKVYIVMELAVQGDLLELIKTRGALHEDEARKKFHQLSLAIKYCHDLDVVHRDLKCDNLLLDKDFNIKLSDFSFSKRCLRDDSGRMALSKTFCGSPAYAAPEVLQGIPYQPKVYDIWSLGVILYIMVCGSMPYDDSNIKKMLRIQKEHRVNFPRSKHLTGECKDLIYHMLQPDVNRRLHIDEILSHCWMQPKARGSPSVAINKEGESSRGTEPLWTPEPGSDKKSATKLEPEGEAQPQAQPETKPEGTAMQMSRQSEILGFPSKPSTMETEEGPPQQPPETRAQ
Source text: as §1

TSSK2 = biological target: T40, TSSK2 (Homo sapiens, UniProt Q96PF2); experiment: KinaseProfiler TSSK2
T40 construct: purchased Millipore, Inc. (KinaseProfiler service)
T40 sequence (Q96PF2 whole entry): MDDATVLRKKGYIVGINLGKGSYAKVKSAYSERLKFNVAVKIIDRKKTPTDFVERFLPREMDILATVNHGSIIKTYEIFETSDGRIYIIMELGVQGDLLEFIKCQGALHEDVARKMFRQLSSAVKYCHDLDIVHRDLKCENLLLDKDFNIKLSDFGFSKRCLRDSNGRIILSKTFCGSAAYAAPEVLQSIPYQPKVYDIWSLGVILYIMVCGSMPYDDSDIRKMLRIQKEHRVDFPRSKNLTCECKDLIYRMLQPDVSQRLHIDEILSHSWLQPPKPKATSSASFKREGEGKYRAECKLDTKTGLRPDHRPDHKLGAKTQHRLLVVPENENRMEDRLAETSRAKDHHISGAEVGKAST
Source text: as §1

VRK2 = biological target: T41, VRK2 (Homo sapiens, UniProt Q86Y07); experiment: KinaseProfiler VRK2
T41 construct: purchased Millipore, Inc. (KinaseProfiler service)
Source text: as §1

ZAP-70 = biological target: T42, ZAP-70 (Homo sapiens, UniProt P43403); experiment: KinaseProfiler ZAP-70
T42 construct: purchased Millipore, Inc. (KinaseProfiler service)
T42 sequence (P43403 whole entry): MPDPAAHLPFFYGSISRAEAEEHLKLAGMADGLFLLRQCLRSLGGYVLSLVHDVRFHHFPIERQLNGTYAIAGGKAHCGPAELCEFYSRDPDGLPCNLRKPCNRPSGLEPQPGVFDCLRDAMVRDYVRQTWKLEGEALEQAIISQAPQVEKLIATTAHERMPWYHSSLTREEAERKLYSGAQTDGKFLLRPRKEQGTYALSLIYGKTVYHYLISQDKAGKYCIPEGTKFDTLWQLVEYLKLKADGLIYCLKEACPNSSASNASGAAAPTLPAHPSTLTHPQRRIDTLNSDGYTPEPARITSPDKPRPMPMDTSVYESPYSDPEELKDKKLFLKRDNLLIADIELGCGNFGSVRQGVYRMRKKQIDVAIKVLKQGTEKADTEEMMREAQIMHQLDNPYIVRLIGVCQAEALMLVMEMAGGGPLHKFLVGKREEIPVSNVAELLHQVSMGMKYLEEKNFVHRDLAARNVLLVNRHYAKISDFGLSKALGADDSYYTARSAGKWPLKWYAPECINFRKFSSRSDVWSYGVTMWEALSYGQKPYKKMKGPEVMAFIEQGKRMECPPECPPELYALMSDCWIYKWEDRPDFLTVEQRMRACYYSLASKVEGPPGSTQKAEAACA
Source text: as §1

## Cc1c(-c2cnn(C)c2)nn(-c2ccccc2)c1NC(=O)Nc1cc(C(F)(F)F)nn1-c1ccccc1 [Example 3, 1-(1′,4-dimethyl-1-phenyl-1H,1′H-[3,4′-bipyrazol]-5-yl)-3-(1-phenyl-3-(trifluoromethyl)-1H-pyrazol-5-yl)urea]
ARK5
  Avg POC: 92.5 POC
Axl
  Avg POC: 117 POC
BrSK1
  Avg POC: 127 POC
BTK
  Avg POC: 123 POC
CAMK1
  Avg POC: 103.5 POC
CAMK2g
  Avg POC: 112 POC
CAMK4
  Avg POC: 147.5 POC
CDK6/cyclinD3
  Avg POC: 107.5 POC
CK1_y
  Avg POC: 98 POC
CLK2
  Avg POC: 135 POC
CLK3
  Avg POC: 104 POC
CSK
  Avg POC: 137.5 POC
DRAK1
  Avg POC: 129 POC
EphA1
  Avg POC: 93.5 POC
EphB1
  Avg POC: 122 POC
ERK2
  Avg POC: 116 POC
FAK
  Avg POC: 105.5 POC
Fes
  Avg POC: 123 POC
IRAK1
  Avg POC: 102.5 POC
IRAK4
  Avg POC: 131.5 POC
JAK2
  Avg POC: 136.5 POC
JNK2alpha2
  Avg POC: 99.5 POC
KDR
  Avg POC: 115.5 POC
Lck
  Avg POC: 93 POC
Lyn
  Avg POC: 98 POC
MAPKAP-K2
  Avg POC: 142.5 POC
MARK1
  Avg POC: 112 POC
Mer
  Avg POC: 104.5 POC
MLK1
  Avg POC: 100.5 POC
mTOR
  Avg POC: 78.5 POC
PAK6
  Avg POC: 167 POC
PKCbetaII
  Avg POC: 96.5 POC
Plk1
  Avg POC: 95 POC
PRKG1beta
  Avg POC: 98 POC
PrKX
  Avg POC: 188 POC
Ret
  Avg POC: 89.5 POC
Rse
  Avg POC: 106.5 POC
STK33
  Avg POC: 107.5 POC
TEC Activated
  Avg POC: 144.5 POC
TSSK1
  Avg POC: 83.5 POC
TSSK2
  Avg POC: 132.5 POC
VRK2
  Avg POC: 96.5 POC
ZAP-70
  Avg POC: 135 POC
